Several values for one entry are separate records, joined by “and”; a condition that tells them apart may be missing. Equal entries are not always repeated. Where two headings read alike, the source gives them in different places.
Tests used:
[1] = target: T1, full‐length His6‐JMJD6 (Homo sapiens, UniProt Q6NYC1); assay: JMJD6 SPE–MS inhibition assay (BRD4_511–550 hydroxylation); assay type: biochemical; conditions: for IC50: His6‐JMJD6 0.05 µM, 2OG 100 µM, FAS 2 µM, BRD4_511–550 1 µM, L‐ascorbic acid 100 µM, means of two independent runs (mean ± SD)
T1 construct: Isolated recombinant full‐length human JMJD6 with a N‐terminal His6‐tag; made in house; host or cells: Escherichia coli BL21 (DE3)
Procedure: Co‐substrate concentrations were chosen based on reported SPE–MS kinetic parameters for the JMJD6‐catalyzed BRD4_511–550 monohydroxylation reaction.^[ [56] ^] […] Since JMJD6 has a relatively high 2OG Kmapp , the JMJD6 SPE–MS inhibition assay employs a 2OG concentration which is relatively high compared to most other 2OG oxygenase SPE–MS assays, possibly more accurately reflecting cellular 2OG concentrations.^[ [59] ^, [60] ^] Likely saturating concentrations of LAA (100 µM) and FAS (2 µM) were used.
JMJD6 catalyzes oxidation of BRD4_511–550 to give multiple hydroxylation products,^[ [56] ^] an observation potentially complicating data analysis.
Isolated recombinant full‐length human JMJD6 with a N‐terminal His6‐tag was produced in Escherichia coli BL21 (DE3) cells and purified as reported.^[ [1] ^, [56] ^] […] Purified His6‐JMJD6 was stored at −78 °C; fresh aliquots were used for all JMJD6 assays.
DMSO and 2,4‐PDCA (final assay concentration: 500 µM) were used as negative and positive inhibition controls, respectively. Each reaction was performed in technical duplicates in adjacent wells of the assay plates.
Cosubstrate/cofactor stock solutions (L‐ascorbic acid, LAA: 50 mM in Milli‐Q Ultrapure grade water; 2‐oxoglutarate, 2OG: 20 mM in Milli‐Q Ultrapure grade water; ammonium iron(II) sulfate hexahydrate, FAS, (NH4)2Fe(SO4)2·6H2O: […] in 20 mM aqueous HCl diluted to 1 mM in Milli‐Q Ultrapure grade water) were freshly prepared from commercial solids (Sigma–Aldrich) on the day of the experiment. BRD4_511–550 ([…]) was synthesized by solid‐phase peptide synthesis and was purified by GL Biochem (Shanghai) Ltd (Shanghai, China). Stock solutions of BRD4_511–550 (10 mM in water) were stored at −20 °C.
The plates were centrifuged (1000 rpm, 5 s) and incubated for 15 min at ambient temperature. The substrate mixture (2 × final concentration), containing BRD4_511–550 (2 µM), LAA (200 µM), 2OG (200 µM), and FAS (4 µM) in Tris buffer (50 mM; pH 7.5), was then dispensed across the plates (25 µL per well) using the multidrop dispenser. The plates were centrifuged (1000 rpm, 5 s) and incubated for 20 min at ambient temperature. The enzyme reaction was then stopped by the addition of 10%v/v aqueous formic acid (5 μL per well) using a 16‐channel electronic pipette (ThermoFischer Scientific). The plates were then centrifuged (1000 rpm, 30 s) and analyzed by MS.
Assay samples were aspirated under vacuum for 0.4 s and then loaded onto a C4 SPE cartridge. After loading, the C4 SPE cartridge was washed with 0.1%v/v aqueous formic acid to remove nonvolatile buffer salts (5 s, 1.5 mL min^−1). BRD4_511–550 and the corresponding hydroxylated product peptides were eluted from the SPE cartridge with 0.1%v/v aqueous formic acid in 75/25v/v acetonitrile/water into the mass spectrometer (5 s, 1.6 mL min^−1); the SPE cartridge was subsequently re‐equilibrated with 0.1%v/v aqueous formic acid (1 s, 1.25 mL min^−1).
Peaks corresponding to the m/z + 5 charge states of BRD4_511–550 and the corresponding mono‐ and dihydroxylated product peptides were extracted from the ion chromatogram and integrated using RapidFire Integrator 4.3.0 (Agilent).
From the raw data, dose–response curves (normalized to the 2,4‐PDCA and DMSO controls) were obtained by nonlinear regression (GraphPad Prism 5), which were used to determine IC50 values.

[2] = tested on: JMJD6; set-up: method as in PMID 34581506; conditions: 10 µM JMJD6, 100 µM LUC7L2_267–278; ref [35]; read-out: reported IC50 (JMJD6, MALDI‐TOF MS) (converted); cited from earlier work
[3] = tested on: JMJD6; set-up: method as in PMID 31637004; conditions: assay conditions not described; ref [20]; read-out: reported IC50 (JMJD6) (converted); cited from earlier work
[4] = tested on: JMJD6; set-up: method as in PMID 33991627; conditions: substrate other than BRD4_511–550, 2OG 10 μM, JMJD6 10 µM; ref [33]; read-out: reported IC50 (JMJD6, Succinate‐Glo) (converted); cited from earlier work
[5] = tested on: JMJD6; set-up: method as in earlier work; conditions: 10 µM JMJD6, 100 µM LUC7L2_267–278; ref [22]; read-out: reported IC50 (JMJD6, LC–MS) (converted); cited from earlier work
[6] = tested on: JMJD6; set-up: method as in PMID 31857835; conditions: fluorescence‐based assay; ref [32]; read-out: reported IC50 (JMJD6‐catalyzed histone dimethylarginine N‐demethylation); cited from earlier work
[7] = tested on: JMJD6; set-up: method as in PMID 35969736; conditions: Succinate‐Glo and MALDI‐TOF assays; ref [31]; read-out: reported IC50 (JMJD6 lysine hydroxylation); cited from earlier work
[8] = tested on: PHD2; set-up: method as in PMID 39291299; conditions: isolated PHD2; ref [100]; cited from earlier work

| SMILES | IC50 ([1]; read-out: IC50 (JMJD6, SPE–MS)) | IC50 [2] | also measured |
| --- | --- | --- | --- |
| O=C(N/N=C/c1c(O)ccc2ccccc12)c1ccncc1 [AS‐8351] | ~6.9 µM and 6.9 µM |  |  |
| O=C(O)Cc1csc(=NC(=O)CS(=O)(=O)Cc2ccc3ccccc3c2)n1O [BNS] | ~0.16 µM and 0.16 µM |  |  |
| O=C(O)CNC(=O)C(=O)O [NOG, N‐oxalylglycine] | > 50 µM | 296 µM |  |
| COc1ccc(C(NC(=O)c2cnc(-c3cccnn3)nc2O)c2ccc(OC)cc2)cc1 [MK‐8617] | > 50 µM |  |  |
| O=C(O)CC[C@H](O)C(=O)O [L‐2‐Hydroxyglutarate] | > 50 µM | 871 µM |  |
| Cc1nc(C(=O)NCC(=O)O)c(O)c2ccc(Oc3ccccc3)cc12 [Roxadustat] | > 50 µM | 23 µM |  |
| CC(=O)C(=O)O [Pyruvate] | > 50 µM | 2380 µM |  |
| CC(C)(NC(=O)c1c(O)c2ccccc2n(OCc2cscn2)c1=O)C(=O)O [Compound 48] | ~7.1 µM and 19 µM |  |  |
| Oc1ccnc(N/N=C/c2ccccc2O)n1 [SKLB325] | ~6.7 µM and 6.7 µM |  | IC50 [3]: 780 nM |
| O=C(O)CC(O)C(=O)O (stereo not drawn) [Malate] |  | 5100 µM | IC50 ([1]; IC50 (JMJD6, SPE–MS)): > 50 µM |
| O=C(O)CCC(=O)NO [Compound 1] | ~3.6 µM and 3.6 µM | 25 µM |  |
| O=C(O)CNC(=O)c1ncc(-c2cccc(Cl)c2)cc1O [Vadadustat] | ~17 µM and 17 µM | 7 µM |  |
| CN(C)NC(=O)CCC(=O)O [Daminozide] |  | 94 µM | IC50 ([1]; IC50 (JMJD6, SPE–MS)): > 50 µM |
| O=C(O)CCNc1cc(N2CCc3ccccc3CC2)nc(-c2ccccn2)n1 [GSK‐J1] | > 50 µM |  |  |
| O=C(O)CNC(=O)c1c(O)c2ccccc2n(Cc2ccccc2)c1=O [IOX2] | ~19 µM and 7.1 µM |  |  |
| O=C(NCC1CCC(C(F)(F)F)CC1)c1cnc(-n2cccn2)cc1O (stereo not drawn) [IOX5] | > 50 µM |  |  |
| O=C(O)c1ccc(O)c2ncccc12 [IOX1] | ~6.4 µM and 6.4 µM | ~10 µM and 10 µM |  |
| O=C(O)CC[C@@H](O)C(=O)O [D‐2‐Hydroxyglutarate] | > 50 µM | 622 µM |  |
| C/C(=C\C(=O)O)C(=O)O [Mesaconate] | > 50 µM |  |  |
| Cn1ccc(-c2cc(C(=O)O)ccn2)n1 [Compound 10a] | ~0.07 µM and 0.07 µM |  | IC50 [4]: ~1700 nM and 1700 nM; fold more potent than Compound 7p in inhibiting JMJD6 ([1]; SPE–MS IC50 comparison): ≈ 60 fold; ligand efficiency (LE) ([1]; from JMJD6 SPE–MS potency): 0.67; fold less potent in Succinate‐Glo assay than in SPE–MS assay ([1]; reported Succinate‐Glo IC50 versus SPE–MS IC50): ≈ 25 fold |
| O=C(O)CCC(=O)O [Succinate] | > 50 µM | 261 µM |  |

| SMILES | IC50 ([1]; read-out: IC50 (JMJD6, SPE–MS)) | IC50 [2] | also measured |
| --- | --- | --- | --- |
| O=C(O)CC(O)(CC(=O)O)C(=O)O [Citrate] | > 50 µM | 987 µM |  |
| Cn1ccc(-c2cc(C(=O)OCC(F)(F)F)ccn2)n1 [Compound 7p] | ~4.2 µM and 4.2 µM |  | IC50 [4]: 680 nM |
| O=C(O)c1ccncc1NCc1ccco1 [Compound 34] | ~2.6 µM and 2.6 µM |  |  |
| O=C(O)/C=C/C(=O)O [Fumarate] | > 50 µM | 165 µM |  |
| O=C(O)c1ccnc(C(=O)O)c1 [2,4‐PDCA, pyridine‐2,4‐dicarboxylic acid] | ~1.6 µM and 1.6 µM | ~13 µM and 13 µM | IC50 [5]: ~5.4 µM and 5.4 µM |
| O=c1c2ccccc2[se]n1-c1ccccc1 [Ebselen] | > 50 µM |  |  |
| O=C(O)C(=O)N[C@H](Cc1ccccc1)C(=O)O [NOFD, N‐oxalyl‐D‐phenylalanine] | > 50 µM |  |  |
| Cc1ccc2oc(=O)c(-c3nc4cnccc4[nH]3)cc2c1 [WL12] | > 50 µM |  | IC50 [6]: ~220 nM and 220 nM; IC50 [7]: > 100 µM |
| O=C(O)CC(=O)C(=O)O [Oxaloacetate] | > 50 µM | 204 µM |  |
| O=C(O)c1cnn(-c2nc3cc(OC(F)(F)F)c(Cl)cc3[nH]2)c1 [JNJ‐42041935] | > 50 µM |  |  |
| O=c1c(-n2ccnn2)c[nH]n1-c1cc(N2CCOCC2)ncn1 [Molidustat] | ~20 µM and 20 µM | 74 µM |  |
| O=C(O)CNC(=O)c1c(O)c2ccccc2n(OCC2CC2)c1=O [Desidustat] | ~2.7 µM and 2.7 µM |  | IC50 [8]: 1300 nM |
| CC(C)c1c(-c2ccccc2)[nH]c2c(C#N)cnn2c1=O [CPI‐455] | > 50 µM |  |  |
| CC(C)c1cc(C(=O)N2CC[C@@H](NC(=O)C3CC3)C2)[nH]n1 [KDM5A‐IN‐1] | > 50 µM |  |  |
| CN(c1ccccc1)c1ccc2c(c1)CCC[C@H]2CNc1cnccc1C(=O)O [QC6352] | ~2.8 µM and 2.8 µM |  |  |
| CN(C)CCCNC(=O)c1ccc(-c2cc(O)c3ncccc3c2)cc1 [ML324] | ~1.4 µM and 1.4 µM |  |  |
| O=C(O)CNC(=O)c1c(O)cc(CCc2ccccc2)n2ncnc12 [Enarodustat] | ~1.2 µM and 1.2 µM |  | IC50 [8]: 380 nM |
| O=C(O)CNC(=O)C1=C(O)CCN(Cc2ccc(Oc3ccc(Cl)cc3)nc2)C1=O [TP0463518] | ~1.1 µM and 1.1 µM |  |  |
| O=C(O)CNC(=O)C1C(=O)N(C2CCCCC2)C(=O)N(C2CCCCC2)C1=O [Daprodustat] |  | 10 µM | IC50 ([1]; IC50 (JMJD6, SPE–MS)): ~28 µM and 28 µM |
| O=C(O)/C=C/C(=O)N(O)CCCCNCc1ccc(COC(=O)Nc2cccc3ccccc23)cc1 [JMJD histone demethylase inhibitor III] | ~0.1 µM and 0.1 µM |  |  |
